Experiment [1] has as its system P. falciparum (3D7). Kind of experiment: Activity against P. falciparum 3D7 cultures, 72 h (PfLDH growth inhibition / flow cytometry). It is filed as cell-based, Plasmodium falciparum. As for the experimental part: Antimalarial activity against P. falciparum 3D7 was tested by TCGLS, Kolkata, India, using the lactate dehydrogenase (PfLDH) growth inhibition assay. […] Plates were shaken to ensure mixing and were placed in the dark at 21 °C for 20 min. […] P. falciparum strain (3D7) was obtained from BEI Resources.
Viability was assessed in the second cycle by flow cytometry, following labeling with 2 μM Syto-61 (Thermo Fisher Scientific)[48],[49]. Viability represents the parasitemia normalized to untreated and “kill” controls that were treated with 2 μM dihydroartemisinin (DHA; Sigma-Aldrich) for 48–72 h. For drug pulse assays, tightly synchronized Cam3.II-rev[50] parasites (1–1.5% parasitemia, 0.2% final hematocrit) were added to the plates and incubated for 6 h. Drugs were removed and the parasitemia assessed in the trophozoite stage of the next cycle.
For orientation: A flow cytometer gives signals particle by particle.

For experiment [2], the system named is DSM265-selected recrudescent Dd2-B2 cultures (G7, F3). Nature of the experiment: Sensitivity of DSM265-selected bulk recrudescent cultures. It is filed as cell-based, Plasmodium falciparum. As to conditions: for IC50: Plasmodium falciparum.
Experiment [3] has as its system P. falciparum Dd2-B2 clone. Kind of experiment: microbe, parasite or virus in culture. It counts as cell-based, Plasmodium falciparum. An excerpt: Wells were monitored daily by smear during the first 7 days to ensure parasite clearance, during which media was changed daily. […] Whole-genome sequencing analysis employed MiSeq data from libraries of 2 × 300 bp paired end reads.

The target in experiment [4] is T1, HsAsnRS (Homo sapiens, UniProt O43776).
T1 construct: HsAsnRS (residues M1–P548) and CDHsAsnRS (residues A98–P548); His6 (N, cleaved yes); made in house; host or cells: E. coli BL21 (DE3), pET11a
T1 sequence (O43776 1-548): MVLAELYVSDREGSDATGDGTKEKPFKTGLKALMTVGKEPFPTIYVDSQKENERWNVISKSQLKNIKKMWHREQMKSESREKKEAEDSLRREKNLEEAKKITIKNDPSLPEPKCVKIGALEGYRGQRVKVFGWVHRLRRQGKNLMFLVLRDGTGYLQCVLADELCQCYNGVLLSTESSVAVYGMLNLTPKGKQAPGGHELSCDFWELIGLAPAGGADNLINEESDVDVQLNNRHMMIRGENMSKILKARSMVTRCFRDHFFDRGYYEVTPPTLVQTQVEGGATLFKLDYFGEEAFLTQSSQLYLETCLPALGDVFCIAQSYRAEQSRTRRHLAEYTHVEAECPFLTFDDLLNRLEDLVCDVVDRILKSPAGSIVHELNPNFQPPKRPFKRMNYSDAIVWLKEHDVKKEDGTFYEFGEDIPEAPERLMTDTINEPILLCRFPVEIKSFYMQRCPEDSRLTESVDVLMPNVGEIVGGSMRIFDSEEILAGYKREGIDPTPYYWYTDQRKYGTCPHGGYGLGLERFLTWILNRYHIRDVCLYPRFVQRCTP
Nature of the experiment: ATP consumption assay (Kinase-Glo), HsAsnRS. It counts as biochemical. Particulars: for ATP consumption: HsAsnRS. In general terms: In Kinase-Glo more light means more ATP remaining.

For experiment [5], the target named is PfAsnRS (Plasmodium falciparum, UniProt O96198). Kind of experiment: biochemical. Particulars: for ATP consumption: PfAsnRS.
Sequence of PfAsnRS (O96198 entry or part of it): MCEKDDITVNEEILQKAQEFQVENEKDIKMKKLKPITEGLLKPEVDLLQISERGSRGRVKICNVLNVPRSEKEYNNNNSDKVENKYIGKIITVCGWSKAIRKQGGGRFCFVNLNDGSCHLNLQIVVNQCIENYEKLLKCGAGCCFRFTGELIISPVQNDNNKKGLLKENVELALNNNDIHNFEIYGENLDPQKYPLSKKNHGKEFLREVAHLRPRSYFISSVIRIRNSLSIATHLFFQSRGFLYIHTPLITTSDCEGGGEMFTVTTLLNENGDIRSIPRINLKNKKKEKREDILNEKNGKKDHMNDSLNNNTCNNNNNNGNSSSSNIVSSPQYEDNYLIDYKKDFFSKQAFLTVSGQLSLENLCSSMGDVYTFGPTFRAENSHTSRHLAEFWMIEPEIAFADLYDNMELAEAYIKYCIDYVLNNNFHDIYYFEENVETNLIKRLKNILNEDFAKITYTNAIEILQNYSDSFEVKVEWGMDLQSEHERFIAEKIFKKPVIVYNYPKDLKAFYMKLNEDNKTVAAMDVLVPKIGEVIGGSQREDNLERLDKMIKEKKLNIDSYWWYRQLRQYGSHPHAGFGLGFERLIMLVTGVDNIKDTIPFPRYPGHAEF
Setting [6] is: Plasmodium falciparum, 3D7, 72 h, read-out: Pf3D7 IC50(72 h), 72 h, mean ± SD or duplicate values.
The mark [7] stands for this setting: Plasmodium falciparum, 3D7, 72 h, read-out: Pf3D7 IC50 (72h), individual biological repeats (source data of Table 1).
Where [8] appears, read: Plasmodium falciparum, 3D7, read-out: activity against 3D7 cultures, value of earlier manuscript version quoted by reviewer, peer review file.
The mark [9] stands for this setting: read-out: Pf3D7 IC50 (72h), individual biological repeats (source data of Table 1).

Structures are written as SMILES. Several values for one entry are separate records, joined by “and”; a condition that tells them apart may be missing. Equal values may be shown once. Read-outs that look alike come from different tables or passages of the source.

As to `Nc1ncnc2cc(-c3cccc(COS(N)(=O)=O)c3)sc12` [OSM-LO-81], the IC50 in experiment [1] (setting [6]) is 0.93 ± 0.24 µM; in experiment [1] (setting [7]) it was 1.1 µM; in experiment [1] (setting [8]), 0.9 µM; in experiment [1] (setting [9]), 1.33 µM and 0.74 µM and 0.761 µM and 0.909 µM and 0.753 µM.
Regarding `NS(=O)(=O)c1cccc(-c2ccc3c(=O)[nH]cnc3c2)c1` [OSM-LO-87], the “antimalarial potency (in words)” value in experiment [1] (3D7 cultures) is “no antimalarial potency”. For the same compound, the IC50 in experiment [1] (setting [6]), in experiment [1] (setting [7]) and in experiment [1] (setting [9]) was more than 25 µM each time.
`CNS(=O)(=O)c1cccc(-c2cc3ncnc(N)c3s2)c1` [OSM-S-488]: the figures for the IC50 in experiment [1] (setting [7]) and in experiment [1] (setting [9]) were 12.7 µM and 13.8 µM, respectively.
As for `Cc1cc(Nc2ccc(S(F)(F)(F)(F)F)cc2)n2nc(C(C)(F)F)nc2n1` [DSM265], the “Fold Shift” value in experiment [2] (DSM265_F3 vs Dd2-B2 parent) turned out to be 2.5; in experiment [2] (DSM265_G7 vs Dd2-B2 parent), 3.1. Besides, the IC50 came out at 0.0566 µM in experiment [2] (read-out: Mean IC50 + SEM (N), recrudescent culture DSM265_F3); 0.071 µM in experiment [2] (read-out: Mean IC50 + SEM (N), recrudescent culture DSM265_G7); 0.0226 µM in experiment [3] (Plasmodium falciparum, DD2, read-out: Mean IC50 + SEM (N)). Also, the “Minimum Inoculum for Resistance (MIR)” value in experiment [3] (reference selection at 5 × IC50 (58 nM), 2 × 10^5 parasites per well, 96 wells) is listed as 1.4 × 10^6 parasites. In addition, the recrudescent wells in experiment [3] (reference selection at 5 × IC50 (58 nM), 96-well plate) was 14 and 14/96.
With `NS(=O)(=O)c1cccc(-c2cc3ncnc(N4CCN(Cc5ccc(F)cc5)CC4)c3s2)c1` [OSM-S-137], the IC50 was 4.4 ± 3 µM in experiment [1] (setting [6]); 2.65 µM and 1.2 µM and 6.07 µM and 7.69 µM in experiment [1] (setting [9]).
As for `NS(=O)(=O)c1cccc(-c2cc3nc[nH]c(=O)c3s2)c1` [OSM-LO-88], the IC50 is 18.7 ± 1.8 µM in experiment [1] (setting [6]); 19.2 µM in experiment [1] (setting [7]); 21.9 µM and 18.6 µM and 17.5 µM and 16.5 µM in experiment [1] (setting [9]).
On to `Cc1ccc(S(N)(=O)=O)cc1-c1cc2ncnc(N)c2s1` [OSM-E-32], for which the IC50 in experiment [1] (setting [7]) was 8.33 µM.
With `Nc1ncnc2cc(-c3cccc(OS(N)(=O)=O)c3)sc12` [OSM-LO-80], the ATP consumption in experiment [4] (0.1 μM OSM-LO-80, normalised to 1 (Fig 3C)) is 0.9993 and 0.9657 and 0.9905; in experiment [4] (1 μM OSM-LO-80, normalised to 1 (Fig 3C)), 1 and 0.9892 and 0.9767; in experiment [4] (3 μM OSM-LO-80, normalised to 1 (Fig 3C)), 0.9847 and 1 and 0.9888; in experiment [4] (10 μM OSM-LO-80, normalised to 1 (Fig 3C)) it was 1.009 and 0.9926 and 0.9928; in experiment [4] (30 μM OSM-LO-80, normalised to 1 (Fig 3C)), 0.9786 and 0.9717 and 1; in experiment [4] (100 μM OSM-LO-80, normalised to 1 (Fig 3C)), 0.9628 and 0.9785 and 0.9921. Also, the ATP consumption was 0.9991 in experiment [5] (0.1 μM OSM-LO-80, normalised to 1 (Fig 3C), 0.1 µM); 0.918 and 0.9991 in experiment [5] (1 μM OSM-LO-80, normalised to 1 (Fig 3C), 1 µM); 0.8254 and 0.8439 in experiment [5] (3 μM OSM-LO-80, normalised to 1 (Fig 3C), 3 µM); 0.7121 and 0.7363 in experiment [5] (10 μM OSM-LO-80, normalised to 1 (Fig 3C), 10 µM); 0.597 and 0.5984 in experiment [5] (30 μM OSM-LO-80, normalised to 1 (Fig 3C), 30 µM); 0.5737 and 0.5517 in experiment [5] (100 μM OSM-LO-80, normalised to 1 (Fig 3C), 100 µM). Moreover, the IC50 in experiment [4] (0.2 μM HsAsnRS, E. coli tRNA present, 37 °C, 1 h (Fig. 3C, D)) is more than 100 µM; in experiment [1] (setting [6]) it was 5.1 ± 3.2 µM; in experiment [1] (setting [8]), 2.1 µM; in experiment [1] (setting [9]), 1.72 µM and 1.7 µM and 8 µM and 8.04 µM and 8.28 µM and 7.95 µM and 2.49 µM and 2.41 µM; in experiment [5], more than 100 µM.
Consider `NC(=O)C[C@H](N)C(=O)NS(=O)(=O)c1cccc(-c2cc3ncnc(N)c3s2)c1` [Asn-OSM-S-106], for which the ATP consumption in experiment [4] (0.1 μM Asn-OSM-S-106, normalised to 1 (Fig 3E)) is 1 and 0.9164 and 0.9986; in experiment [4] (0.3 μM Asn-OSM-S-106, normalised to 1 (Fig 3E)) it was 0.9525 and 1; in experiment [4] (1 μM Asn-OSM-S-106, normalised to 1 (Fig 3E)) it was 0.8864 and 0.9489 and 0.9329; in experiment [4] (3 μM Asn-OSM-S-106, normalised to 1 (Fig 3E)), 0.7684 and 0.8281 and 0.785; in experiment [4] (10 μM Asn-OSM-S-106, normalised to 1 (Fig 3E)), 0.5231 and 0.5272 and 0.5151; in experiment [4] (30 μM Asn-OSM-S-106, normalised to 1 (Fig 3E)) it was 0.2926 and 0.3365 and 0.2915. Moreover, the ATP consumption in experiment [4] (100 μM Asn-OSM-S-106, normalised to 1 (Fig 3E)) was 0.09965 and 0.131 and 0.08856; in experiment [5] (0.005 μM Asn-OSM-S-106, 0 μM = 100 (Fig 3F), 0.005 µM) it was 96.6227 and 115.849 and 86.517 and 87.5323; in experiment [5] (0.05 μM Asn-OSM-S-106, 0 μM = 100 (Fig 3F), 0.05 µM) it was 102.641 and 101.648 and 126.552 and 109.716 and 83.8806 and 85.0945; in experiment [5] (0.1 μM Asn-OSM-S-106, normalised to 1 (Fig 3E), 0.1 µM) it was 0.9937 and 0.8109; in experiment [5] (0.5 μM Asn-OSM-S-106, 0 μM = 100 (Fig 3F), 0.5 µM), 95.6169 and 98.8652 and 117.558 and 102.603 and 76.814 and 78.5601; in experiment [5] (1 μM Asn-OSM-S-106, normalised to 1 (Fig 3E), 1 µM) it was 0.8236 and 0.8406. For the same compound, the ATP consumption was 0.3452 and 0.4265 in experiment [5] (3 μM Asn-OSM-S-106, normalised to 1 (Fig 3E), 3 µM); 0.09706 and 0.1733 in experiment [5] (10 μM Asn-OSM-S-106, normalised to 1 (Fig 3E), 10 µM). In experiment [4] (0.5 μM enzyme without tRNA (Fig. 3E)), the IC50 was determined as 12 µM.

Values taken from paper PMC10831071, “Reaction hijacking inhibition of Plasmodium falciparum asparagine tRNA synthetase” (Nature Communications, 2024).
